The source of these data is ChEMBL document CHEMBL1201862, “PubChem BioAssay data set” (2004).

Some test systems named below: KM12; K562; ACHN; UACC-257; SK-MEL-28; U-251; Malme-3M; HL-60; MOLT-4; MDA-MB-435; SNB-75; DU-145; PC-3; NCI-H460; HCT-15; HCC 2998; COLO 205; T47D; MCF7.
Common to all, as to assay: NCI-60 cell line screen, 48 h

Molecules are shown by their SMILES.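 Results reflect a 48-hour exposure of cells in 96-well plates to compound at five concentrations. At the GI50, growth is halved.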 Activity calls are given as the source filed them. Cut-off read from the data, not from the text of the source: active = GI50 up to about 1.1 µM and inactive = higher.

Take `O=S(=O)(O)c1c(Cl)c(Cl)c(O)c2ncccc12`: the GI50 in the test with KM12 is 10.8 µM (inactive); in the test with K562, 7.57 µM (inactive); in the test on ACHN, 7.33 µM (inactive); in the test with UACC-257, 14.9 µM (inactive); with SK-MEL-28, 13 µM (inactive); in the test on U-251, 10.8 µM (inactive). The GI50 is 10.4 µM (inactive) in the test on Malme-3M; 1.87 µM (inactive) with HL-60; 3.33 µM (inactive) with MOLT-4; 9.4 µM (inactive) in the test with MDA-MB-435; 14.3 µM (inactive) in the test with SNB-75; 16.6 µM (inactive) with DU-145. The GI50 was 10.8 µM (inactive) in the test on PC-3; 7.36 µM (inactive) in the test with NCI-H460; 5.33 µM with HCT-15; 13.5 µM (inactive) in the test on HCC 2998; 9.95 µM (inactive) in the test on COLO 205; 7.08 µM (inactive) in the test with T47D. The GI50 in the test on MCF7 was 5.04 µM (inactive).

`CC[C@H](C)[C@H](NC(=O)N(CCC#N)CCN(CCN(C(=O)N[C@@H](Cc1ccccc1)C(=O)OC)c1ccccc1)C(=O)N[C@H](C(=O)OC)C(C)C)C(=O)OC`: the GI50 with KM12 was 20.9 µM (inactive); in the test on ACHN, 13.8 µM (inactive); with UACC-257, 13.5 µM (inactive); in the test with SK-MEL-28, 15 µM (inactive); in the test on U-251, 16.2 µM (inactive); in the test on Malme-3M it was 17.2 µM (inactive). Further, the GI50 was 0.879 µM (active) with HL-60; 4.57 µM (inactive) in the test on MOLT-4; 16.6 µM (inactive) in the test on MDA-MB-435; 19.9 µM (inactive) with SNB-75; 20 µM (inactive) in the test with DU-145; 16.1 µM (inactive) in the test on PC-3. The GI50 with HCT-15 is 21.8 µM; in the test on HCC 2998 it was 19 µM (inactive); with COLO 205, 24.2 µM (inactive); in the test with T47D it was 14.3 µM (inactive); in the test on MCF7, 27.5 µM (inactive).

For the compound `CO/N=C/c1c(-c2ccc(Cl)cc2)c(/C=N/OC)n2c1sc1ccccc12`, the GI50 in the test with KM12, with K562, with ACHN, with UACC-257, with SK-MEL-28 and in the test with U-251 was > 100 µM (inactive) each time. In addition, the GI50 was > 100 µM (inactive) in the test on Malme-3M; 32 µM (inactive) in the test with HL-60; 45.5 µM (inactive) with MOLT-4; > 100 µM (inactive) in the test with MDA-MB-435; > 100 µM (inactive) with SNB-75; > 100 µM (inactive) in the test with DU-145. Besides, the GI50 in the test with PC-3 was > 100 µM (inactive); with NCI-H460, > 100 µM (inactive); with HCT-15, above 100 µM; in the test with HCC 2998, > 100 µM (inactive); in the test with COLO 205 it was > 100 µM (inactive); with T47D it was 21.2 µM (inactive). Further, the GI50 in the test with MCF7 is > 100 µM (inactive).

In the case of `O=c1cc(N2CCCC2)[nH]c(=O)n1-c1ccc(F)cc1`, the GI50 in the test with KM12, in the test on K562, in the test with ACHN, with UACC-257, in the test on SK-MEL-28 and in the test with U-251 was > 100 µM (inactive) throughout. For the same compound, the GI50 in the test with Malme-3M, in the test on HL-60, in the test with MOLT-4, in the test with MDA-MB-435, with SNB-75 and in the test on DU-145 was > 100 µM (inactive) throughout. Moreover, the GI50 was > 100 µM (inactive) in the test on PC-3; > 100 µM (inactive) in the test on NCI-H460; above 100 µM with HCT-15; > 100 µM (inactive) in the test on HCC 2998; > 100 µM (inactive) in the test with COLO 205; > 100 µM (inactive) in the test with T47D. Moreover, the GI50 in the test on MCF7 is > 100 µM (inactive).

`Cc1oncc1/N=C1\C=C(O)C(=O)c2ccccc21`: the GI50 in the test with KM12 was 6.21 µM (inactive); in the test with K562, 6.14 µM (inactive); in the test on ACHN it was 4.82 µM (inactive); with UACC-257 it was 2.77 µM (inactive); in the test with SK-MEL-28, 15.4 µM (inactive); in the test on U-251 it was 5.37 µM (inactive). Also, the GI50 was 3.45 µM (inactive) with Malme-3M; 2.26 µM (inactive) in the test with HL-60; 2.5 µM (inactive) in the test with MOLT-4; 1.92 µM (inactive) in the test on MDA-MB-435; 13.1 µM (inactive) with SNB-75; 15 µM (inactive) with DU-145. Besides, the GI50 is 2.42 µM (inactive) with PC-3; 3.91 µM (inactive) in the test with NCI-H460; 3.72 µM with HCT-15; 16.8 µM (inactive) with HCC 2998; 17 µM (inactive) in the test with COLO 205; 3.3 µM (inactive) in the test on T47D. For the same compound, the GI50 in the test on MCF7 is 2.68 µM (inactive).

`O=C(CC(=O)c1ccncc1)c1ccccc1`: the GI50 in the test with KM12 was > 100 µM (inactive); with K562, 45.1 µM (inactive); in the test with ACHN, 67.6 µM (inactive); with UACC-257 it was > 85.7 µM (inactive); in the test on SK-MEL-28, > 100 µM (inactive); in the test on U-251, 49.7 µM (inactive). In addition, the GI50 with Malme-3M was 40.3 µM (inactive); in the test with HL-60, 1.01 µM (active); in the test on MOLT-4, 38.1 µM (inactive); in the test with MDA-MB-435, > 100 µM (inactive); with SNB-75 it was > 63.8 µM (inactive); in the test with DU-145, > 100 µM (inactive). The GI50 is > 77.8 µM (inactive) in the test with PC-3; 32.9 µM (inactive) in the test on NCI-H460; 35.9 µM with HCT-15; > 67.1 µM (inactive) with HCC 2998; > 100 µM (inactive) in the test on COLO 205; > 100 µM (inactive) in the test on T47D. Further, the GI50 in the test with MCF7 is > 77.6 µM (inactive).

On to `O=S(=O)(N1CCCCN(S(=O)(=O)C(F)(F)F)CCCN(S(=O)(=O)C(F)(F)F)CCCN(S(=O)(=O)C(F)(F)F)CCCCN(S(=O)(=O)C(F)(F)F)CCCN(S(=O)(=O)C(F)(F)F)CCC1)C(F)(F)F`, for which the GI50 with KM12 was > 100 µM (inactive); in the test on K562, > 100 µM (inactive); in the test with ACHN, > 100 µM (inactive); in the test on UACC-257 it was 49.3 µM (inactive); in the test on SK-MEL-28 it was > 100 µM (inactive); in the test on U-251, 21.6 µM (inactive). In addition, the GI50 with Malme-3M is 23.2 µM (inactive); in the test with HL-60, > 100 µM (inactive); with MOLT-4 it was > 100 µM (inactive); with MDA-MB-435 it was 53.7 µM (inactive); with SNB-75 it was 37.9 µM (inactive); in the test with DU-145, > 100 µM (inactive). The GI50 in the test with PC-3 was > 100 µM (inactive); in the test with NCI-H460, 30.9 µM (inactive); in the test with HCT-15, 68.4 µM; with HCC 2998 it was > 100 µM (inactive); in the test with COLO 205, > 100 µM (inactive); in the test on T47D, 77.4 µM (inactive). For the same compound, the GI50 with MCF7 was > 100 µM (inactive).

Consider `CN(CCCN(C)CCc1ccc(Cl)c(Cl)c1)CCCN1CCCC1`, for which the GI50 with KM12 was 2.61 µM (inactive); in the test on K562, 0.532 µM (active); in the test on ACHN it was 7.11 µM (inactive); with UACC-257 it was 1.83 µM (inactive); in the test on SK-MEL-28, 1.5 µM (inactive); in the test on U-251 it was 1.92 µM (inactive). Further, the GI50 in the test with Malme-3M is 2.16 µM (inactive); in the test on HL-60 it was 1.62 µM (inactive); in the test with MOLT-4 it was 0.908 µM (active); in the test with MDA-MB-435, 0.531 µM (active); in the test with SNB-75, 2.72 µM (inactive); in the test with DU-145, 8.71 µM (inactive). Moreover, the GI50 was 3.35 µM (inactive) in the test on PC-3; 2.27 µM (inactive) with NCI-H460; 2.31 µM in the test on HCT-15; 0.305 µM (active) with HCC 2998; 2.28 µM (inactive) in the test with COLO 205; 2.34 µM (inactive) with T47D. The GI50 with MCF7 is 1.78 µM (inactive).

For `Cc1ccc(NC(=O)C23CC4CC(CC(C4)C2)C3)c(C(=O)NNC(=O)c2ccc(Cl)cc2)c1`, the GI50 in the test on KM12 is 21.3 µM (inactive); in the test with K562, 28.6 µM (inactive); in the test on ACHN, 17.5 µM (inactive); in the test on UACC-257, 2.14 µM (inactive); in the test on U-251, 17.2 µM (inactive); with Malme-3M it was 18.3 µM (inactive). The GI50 with HL-60 is 28.3 µM (inactive); in the test on MOLT-4, 21.5 µM (inactive); in the test on MDA-MB-435 it was 17.3 µM (inactive); with SNB-75 it was < 0.01 µM (active); with DU-145, 27.6 µM (inactive); in the test with PC-3, 23.3 µM (inactive). In addition, the GI50 in the test on NCI-H460 is 22 µM (inactive); in the test with HCT-15 it was 17 µM; in the test on HCC 2998, 12.9 µM (inactive); in the test with COLO 205, 27.2 µM (inactive); in the test on T47D, 18.3 µM (inactive); in the test on MCF7 it was 17.4 µM (inactive).

As for `c1cncc(CC2(c3cc4ccccc4[nH]3)OCCO2)c1`, the GI50 was > 100 µM (inactive) with KM12; > 100 µM (inactive) in the test with ACHN; 66.5 µM (inactive) with UACC-257; > 100 µM (inactive) in the test on SK-MEL-28; > 100 µM (inactive) with U-251; > 100 µM (inactive) in the test on Malme-3M. The GI50 with HL-60 was 37.2 µM (inactive); in the test with MDA-MB-435, > 100 µM (inactive); with SNB-75, > 100 µM (inactive); with DU-145, > 100 µM (inactive); with PC-3, > 100 µM (inactive); in the test with NCI-H460 it was > 100 µM (inactive). Moreover, the GI50 was above 100 µM in the test on HCT-15; > 100 µM (inactive) in the test with HCC 2998; > 100 µM (inactive) in the test with COLO 205; > 100 µM (inactive) in the test with T47D; > 100 µM (inactive) with MCF7.

`CC(=O)NN(c1ccccc1)C1CCN(c2ccccc2)N1C(C)=O` (configuration not stated): the GI50 with K562 was 2.32 µM (inactive); in the test with ACHN, 2.82 µM (inactive); with UACC-257, > 10 µM (inactive); in the test with SK-MEL-28, > 10 µM (inactive); in the test on Malme-3M it was 3.48 µM (inactive); with HL-60, 3.69 µM (inactive). For the same compound, the GI50 with MOLT-4 is 4.74 µM (inactive); in the test with MDA-MB-435, 3.18 µM (inactive); in the test on SNB-75 it was > 10 µM (inactive); in the test on DU-145, > 10 µM (inactive); in the test with PC-3 it was 4 µM (inactive); in the test with NCI-H460 it was > 10 µM (inactive). Moreover, the GI50 with HCT-15 is 0.881 µM; in the test on HCC 2998, 3.82 µM (inactive); in the test with COLO 205, 3.13 µM (inactive); in the test with T47D, > 10 µM (inactive); in the test on MCF7, 8.91 µM (inactive).
